In ChEMBL document CHEMBL1148058, “Antibacterial triterpenoid acids from Dillenia papuana” (1994):

Key:
Type in all cases: functional
Micrococcus luteus = assay: Antibacterial activity against Micrococcus luteus ATCC 9341
Bacillus subtilis = assay: Antibacterial activity against Bacillus subtilis ATCC 6633
Escherichia coli = assay: Antibacterial activity against Escherichia coli ATCC 25922

Row | Compound | MIC (Micrococcus luteus) | MIC (Bacillus subtilis) | MIC (Escherichia coli)
1 | CC1(C)C(=O)C[C@H](O)[C@]2(C)[C@H]3CC=C4[C@@H]5C[C@@](C)(C(=O)O)CC[C@]5(C)CC[C@@]4(C)[C@]3(C)CC[C@@H]12 [DILLENIC ACID C] | 2 µg | 2 µg | 5 µg
2 | CC1(C)C(=O)C=C[C@]2(C)[C@H]3CC=C4[C@@H]5C[C@@](C)(C(=O)O)CC[C@]5(C)CC[C@@]4(C)[C@]3(C)CC[C@@H]12 | 1 µg | 1 µg | 1 µg
3 | CC1(C)C(=O)[C@H](O)C[C@]2(C)[C@H]3CC=C4[C@@H]5C[C@@](C)(C(=O)O)CC[C@]5(C)CC[C@@]4(C)[C@]3(C)CC[C@@H]12 [DILLENIC ACID A] | 1.2 µg | 2.4 µg | 2.4 µg
4 | CC1(C)[C@@H](O)C(=O)C[C@]2(C)[C@H]3CC=C4[C@@H]5C[C@@](C)(C(=O)O)CC[C@]5(C)CC[C@@]4(C)[C@]3(C)CC[C@@H]12 [DILLENIC ACID B] | 1 µg | 2 µg | 1 µg
5 | O=C(N[C@H](CO)[C@H](O)c1ccc([N+](=O)[O-])cc1)C(Cl)Cl [CHLORAMPHENICOL] | 0.04 µg | 0.1 µg | 0.04 µg
